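Interpolation was linear, between the two tested concentrations surrounding the appropriate level; five concentrations were tested over 48 hours in 96-well plates. The concentration for 50% growth inhibition is given as GI50. Definition used: TGI = concentration required for complete inhibition of growth.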
Key:
Experiment in all cases: inhibition of tumour cell growth, NCI panel, 48 h
A498 renal = tested on: A498 renal
CCRF-CEM leukemia = tested on: CCRF-CEM leukemia
COLO 205 colon = tested on: COLO 205 colon
HCC-2998 colon = tested on: HCC-2998 colon
HCT-116 colon = tested on: HCT-116 colon
HCT-15 colon = tested on: HCT-15 colon
HL-60(TB) leukemia = tested on: HL-60(TB) leukemia
HOP-92 NSCLC = tested on: HOP-92 NSCLC
HT29 colon = tested on: HT29 colon
K-562 leukemia = tested on: K-562 leukemia
KM12 colon = tested on: KM12 colon
M14 melanoma = tested on: M14 melanoma
MDA-MB-231 breast = tested on: MDA-MB-231 breast
MOLT-4 leukemia = tested on: MOLT-4 leukemia
NCI-H23 lung = tested on: NCI-H23 lung
OVCAR-5 ovarian = tested on: OVCAR-5 ovarian
RPMI-8226 leukemia = tested on: RPMI-8226 leukemia
RXF 393 renal = tested on: RXF 393 renal
SK-MEL-2 melanoma = tested on: SK-MEL-2 melanoma
SK-MEL-28 melanoma = tested on: SK-MEL-28 melanoma
SK-OV-3 ovarian = tested on: SK-OV-3 ovarian
SR leukemia = tested on: SR leukemia
SW-620 colon = tested on: SW-620 colon
U251 CNS = tested on: U251 CNS

For `CO/N=C(/C)c1ccc(NC(=O)CSc2nnc(-c3ccncc3)n2-c2ccccc2)cc1`, the GI50 (A498 renal) was 2.15 µM, the TGI (A498 renal) was 8.08 µM and the GI50 (CCRF-CEM leukemia) was > 100 µM. For the same compound, the TGI (CCRF-CEM leukemia) was > 100 µM, the GI50 (COLO 205 colon) was > 100 µM and the TGI (COLO 205 colon) was > 100 µM. For the same compound, the GI50 (HCC-2998 colon) was > 100 µM, the TGI (HCC-2998 colon) was > 100 µM and the GI50 (HCT-116 colon) was 3.43 µM. For the same compound, the TGI (HCT-116 colon) was > 100 µM, the GI50 (HCT-15 colon) was > 100 µM and the TGI (HCT-15 colon) was > 100 µM. The GI50 (HL-60(TB) leukemia) was > 100 µM, the TGI (HL-60(TB) leukemia) was > 100 µM and the GI50 (HOP-92 NSCLC) was 2.32 µM. The TGI (HOP-92 NSCLC) was 6.07 µM, the GI50 (HT29 colon) was > 100 µM and the TGI (HT29 colon) was > 100 µM. For the same compound, the GI50 (K-562 leukemia) was > 100 µM, the TGI (K-562 leukemia) was > 100 µM and the GI50 (KM12 colon) was > 100 µM. For the same compound, the TGI (KM12 colon) was > 100 µM, the GI50 (M14 melanoma) was > 100 µM and the TGI (M14 melanoma) was > 100 µM. The GI50 (MDA-MB-231 breast) was 2.57 µM, the TGI (MDA-MB-231 breast) was 8.79 µM and the GI50 (MOLT-4 leukemia) was > 100 µM. The TGI (MOLT-4 leukemia) was > 100 µM, the GI50 (NCI-H23 lung) was 4.24 µM and the TGI (NCI-H23 lung) was > 100 µM. The GI50 (OVCAR-5 ovarian) was > 100 µM, the TGI (OVCAR-5 ovarian) was > 100 µM and the GI50 (RPMI-8226 leukemia) was > 100 µM. The TGI (RPMI-8226 leukemia) was > 100 µM, the GI50 (RXF 393 renal) was 2.24 µM and the TGI (RXF 393 renal) was 4.93 µM. For the same compound, the GI50 (SK-MEL-2 melanoma) was 11.1 µM, the TGI (SK-MEL-2 melanoma) was 55.1 µM and the GI50 (SK-MEL-28 melanoma) was > 100 µM. The TGI (SK-MEL-28 melanoma) was > 100 µM, the GI50 (SK-OV-3 ovarian) was 3.34 µM and the TGI (SK-OV-3 ovarian) was > 100 µM. The GI50 (SR leukemia) was > 100 µM, the TGI (SR leukemia) was > 100 µM and the GI50 (SW-620 colon) was > 100 µM. For the same compound, the TGI (SW-620 colon) was > 100 µM, the GI50 (U251 CNS) was 3.22 µM and the TGI (U251 CNS) was > 100 µM.
